Results from patent US7494714B2, “Surfaces that resist the adsorption of biological species” (President & Fellows of Harvard College, priority 2000, dated 2009).
One block for each compound: values may come before it. Where a SMILES comes first, the peptide text is derived from it. [ ]: non-standard residue; d: D form. Sar = CNCC(=O)O

Tests used:
lysozyme = lysozyme (Gallus gallus, UniProt P00698); assay: SPR adsorption of lysozyme to SAMs / grafted polymer films; type: binding; conditions: for % Lysoff (percent decrease in adsorbed protein during 10 minute PBS wash) / dR/dton lysozyme (maximum initial rate of adsorption) / % MLlys 3 min / % MLlys 30 min: mixed SAM —CONRR′/—CO2H; for % MLlys 3 min: 1 mg/mL lysozyme flowed 3 min; for % MLlys 30 min: 1 mg/mL lysozyme flowed 30 min; for % ML 3 min / dR/dt on: lysozyme; for % ML 3 min / dR/dt on / % Lys off: single-component SAMs (a) and mixed SAMs (b)
lysozyme, sequence (P00698 19-147): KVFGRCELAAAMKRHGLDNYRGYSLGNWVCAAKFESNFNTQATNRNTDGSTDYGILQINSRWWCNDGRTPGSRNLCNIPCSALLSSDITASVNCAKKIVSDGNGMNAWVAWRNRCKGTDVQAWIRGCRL

fibrinogen = molecular target: T1, fibrinogen (Bos taurus, UniProt P02672+P02676+P12799); assay: SPR adsorption of fibrinogen to SAMs / grafted polymer films; type: binding, bovine; conditions: for dR/dton fibrinogen (maximum initial rate of adsorption) / % MLfib 3 min / % MLfib 30 min / % Fiboff (percent decrease in adsorbed protein during 10 minute PBS wash): mixed SAM —CONRR′/—CO2H; for % MLfib 3 min: 1 mg/mL fibrinogen flowed 3 min, relative to —CONH(CH2)10CH3/—CO2H SAM; for % MLfib 30 min: 1 mg/mL fibrinogen flowed 30 min; for % ML 30 min / dR/dt on / % ML 3 min: fibrinogen; for % ML 30 min / dR/dt on / % Fib off: single-component SAMs (a) and mixed SAMs (b); for % ML 3 min: single-component SAMs (a, RSH) and mixed SAMs (b, RNH2)
T1 sequence (P02672 20-615): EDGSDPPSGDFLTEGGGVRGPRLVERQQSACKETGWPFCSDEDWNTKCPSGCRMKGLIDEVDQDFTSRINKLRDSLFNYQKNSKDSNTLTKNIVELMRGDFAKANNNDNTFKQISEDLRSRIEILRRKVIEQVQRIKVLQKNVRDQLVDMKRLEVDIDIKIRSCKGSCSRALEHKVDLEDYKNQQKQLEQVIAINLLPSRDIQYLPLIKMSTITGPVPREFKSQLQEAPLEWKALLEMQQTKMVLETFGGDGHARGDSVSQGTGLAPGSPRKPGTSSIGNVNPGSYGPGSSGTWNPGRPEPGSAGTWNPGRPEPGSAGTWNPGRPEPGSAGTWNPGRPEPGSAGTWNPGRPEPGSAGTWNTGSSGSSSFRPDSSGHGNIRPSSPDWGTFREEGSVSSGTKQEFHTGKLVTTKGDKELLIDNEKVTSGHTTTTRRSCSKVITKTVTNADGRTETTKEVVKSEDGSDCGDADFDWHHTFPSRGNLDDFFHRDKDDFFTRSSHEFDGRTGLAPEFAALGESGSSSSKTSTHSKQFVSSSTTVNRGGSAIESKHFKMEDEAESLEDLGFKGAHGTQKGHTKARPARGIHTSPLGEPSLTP
T1 sequence (P02676 1-468): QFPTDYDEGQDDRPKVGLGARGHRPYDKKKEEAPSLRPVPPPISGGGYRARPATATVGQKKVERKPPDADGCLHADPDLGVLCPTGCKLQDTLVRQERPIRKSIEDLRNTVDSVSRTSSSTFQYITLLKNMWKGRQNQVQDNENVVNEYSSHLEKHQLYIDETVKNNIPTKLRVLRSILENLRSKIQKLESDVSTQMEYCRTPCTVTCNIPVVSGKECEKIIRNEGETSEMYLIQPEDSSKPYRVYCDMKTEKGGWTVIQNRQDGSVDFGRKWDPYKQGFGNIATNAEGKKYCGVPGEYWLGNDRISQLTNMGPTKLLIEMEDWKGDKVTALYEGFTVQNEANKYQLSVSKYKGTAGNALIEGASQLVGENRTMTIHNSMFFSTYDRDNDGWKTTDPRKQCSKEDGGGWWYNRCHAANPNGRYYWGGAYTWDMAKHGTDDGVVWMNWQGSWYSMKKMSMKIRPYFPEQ
T1 sequence (P12799 25-444): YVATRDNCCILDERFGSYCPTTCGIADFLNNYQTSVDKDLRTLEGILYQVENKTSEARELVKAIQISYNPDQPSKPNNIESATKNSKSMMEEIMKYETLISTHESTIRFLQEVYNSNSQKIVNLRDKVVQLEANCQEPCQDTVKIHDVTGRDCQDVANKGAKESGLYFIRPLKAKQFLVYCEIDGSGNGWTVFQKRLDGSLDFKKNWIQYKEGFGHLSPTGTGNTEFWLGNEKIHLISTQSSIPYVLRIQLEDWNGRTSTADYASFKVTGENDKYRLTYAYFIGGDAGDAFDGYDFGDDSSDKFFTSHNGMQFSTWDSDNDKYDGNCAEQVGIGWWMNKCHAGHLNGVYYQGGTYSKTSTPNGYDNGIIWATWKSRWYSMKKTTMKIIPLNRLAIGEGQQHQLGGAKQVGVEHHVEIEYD

SMILES: N#CCC(N)=C(C#N)C#N
% Lysoff (percent decrease in adsorbed protein during 10 minute PBS wash) (lysozyme): 370 ± 20% | dR/dton lysozyme (maximum initial rate of adsorption) (lysozyme): 1900 ± 400 RU/sec | % MLlys 3 min (lysozyme): 13 ± 0.3% | % MLlys 30 min (lysozyme): 28 ± 3.7% | % Fiboff (percent decrease in adsorbed protein during 10 minute PBS wash) (fibrinogen): 11 ± 0.0% | dR/dton fibrinogen (maximum initial rate of adsorption) (fibrinogen): 260 ± 70 RU/sec | % MLfib 3 min (fibrinogen): 34 ± 1.1% | % MLfib 30 min (fibrinogen): 58 ± 3%

SMILES: Nc1ccc(O[C@@H]2O[C@H](CO)[C@@H](O)[C@H](O)[C@H]2O)cc1
% Lysoff (percent decrease in adsorbed protein during 10 minute PBS wash) (lysozyme): 78 ± 1.7% | dR/dton lysozyme (maximum initial rate of adsorption) (lysozyme): 1200 ± 270 RU/sec | % MLlys 3 min (lysozyme): 27 ± 3.3% | % MLlys 30 min (lysozyme): 83 ± 2.3% | % Fiboff (percent decrease in adsorbed protein during 10 minute PBS wash) (fibrinogen): 38 ± 0.8% | dR/dton fibrinogen (maximum initial rate of adsorption) (fibrinogen): 1200 ± 270 RU/sec | % MLfib 3 min (fibrinogen): 51 ± 1.8% | % MLfib 30 min (fibrinogen): 67 ± 0.9%

SMILES: OCCOCCN1CCNCC1
% Lysoff (percent decrease in adsorbed protein during 10 minute PBS wash) (lysozyme): 110 ± 5% | dR/dton lysozyme (maximum initial rate of adsorption) (lysozyme): 20 ± 2 RU/sec | % MLlys 3 min (lysozyme): 4.5 ± 0.0% | % MLlys 30 min (lysozyme): 27 ± 10% | % Fiboff (percent decrease in adsorbed protein during 10 minute PBS wash) (fibrinogen): 1.8 ± 0.1% | dR/dton fibrinogen (maximum initial rate of adsorption) (fibrinogen): 54 ± 10 RU/sec | % MLfib 3 min (fibrinogen): 1.2 ± 0.1% | % MLfib 30 min (fibrinogen): 3.7 ± 0.0%

SMILES: Nc1ccc(O[C@@H]2O[C@H](CO)[C@H](O)[C@H](O)[C@H]2O)cc1
% Lysoff (percent decrease in adsorbed protein during 10 minute PBS wash) (lysozyme): 254 ± 10% | dR/dton lysozyme (maximum initial rate of adsorption) (lysozyme): 1300 ± 260 RU/sec | % MLlys 3 min (lysozyme): 11 ± 1.5% | % MLlys 30 min (lysozyme): 30 ± 3.3% | % Fiboff (percent decrease in adsorbed protein during 10 minute PBS wash) (fibrinogen): 17 ± 0.7% | dR/dton fibrinogen (maximum initial rate of adsorption) (fibrinogen): 570 ± 250 RU/sec | % MLfib 3 min (fibrinogen): 35 ± 5% | % MLfib 30 min (fibrinogen): 49 ± 2.3%

SMILES: CNCCNC
% Lysoff (percent decrease in adsorbed protein during 10 minute PBS wash) (lysozyme): 110 ± 5% | dR/dton lysozyme (maximum initial rate of adsorption) (lysozyme): 110 ± 60 RU/sec | % MLlys 3 min (lysozyme): 4.3 ± 0.1% | % MLlys 30 min (lysozyme): 7.8 ± 0.0% | % Fiboff (percent decrease in adsorbed protein during 10 minute PBS wash) (fibrinogen): 7.5 ± 0.4% | dR/dton fibrinogen (maximum initial rate of adsorption) (fibrinogen): 77 ± 30 RU/sec | % MLfib 3 min (fibrinogen): 4.4 ± 0.8% | % MLfib 30 min (fibrinogen): 8.5 ± 0.0%

SMILES: NCC1COCCOCCOCCOCCOCCO1 (centres unmarked)
% Lysoff (percent decrease in adsorbed protein during 10 minute PBS wash) (lysozyme): 14 ± 1.3% | dR/dton lysozyme (maximum initial rate of adsorption) (lysozyme): 75 ± 40 RU/sec | % MLlys 3 min (lysozyme): 3.9 ± 0.3% | % MLlys 30 min (lysozyme): 9.6 ± 0.5% | % Fiboff (percent decrease in adsorbed protein during 10 minute PBS wash) (fibrinogen): 9.7 ± 0.5% | dR/dton fibrinogen (maximum initial rate of adsorption) (fibrinogen): 320 ± 110 RU/sec | % MLfib 3 min (fibrinogen): 44 ± 0.9% | % MLfib 30 min (fibrinogen): 59 ± 2.3%

SMILES: C1COCCOCCOCCOCCOCCN1
% Lysoff (percent decrease in adsorbed protein during 10 minute PBS wash) (lysozyme): 72 ± 0.7% | dR/dton lysozyme (maximum initial rate of adsorption) (lysozyme): 100 ± 50 RU/sec | % MLlys 3 min (lysozyme): 2.1 ± 0.4% | % MLlys 30 min (lysozyme): 6.0 ± 0.5% | % Fiboff (percent decrease in adsorbed protein during 10 minute PBS wash) (fibrinogen): 9.6 ± 0.9% | dR/dton fibrinogen (maximum initial rate of adsorption) (fibrinogen): 45 ± 20 RU/sec | % MLfib 3 min (fibrinogen): 3.8 ± 0.7% | % MLfib 30 min (fibrinogen): 11 ± 0.3%

SMILES: N#CCNCC#N [HN(CH2CN)2]
% Lysoff (percent decrease in adsorbed protein during 10 minute PBS wash) (lysozyme): 110 ± 1% | dR/dton lysozyme (maximum initial rate of adsorption) (lysozyme): 2200 ± 500 RU/sec | % MLlys 3 min (lysozyme): 36 ± 0.5% | % MLlys 30 min (lysozyme): 92 ± 0.3% | % Fiboff (percent decrease in adsorbed protein during 10 minute PBS wash) (fibrinogen): 7.9 ± 0.9% | dR/dton fibrinogen (maximum initial rate of adsorption) (fibrinogen): 2200 ± 500 RU/sec | % MLfib 3 min (fibrinogen): 54 ± 3.8% | % MLfib 30 min (fibrinogen): 73 ± 3%

More lines, now with the values ahead:

% Lysoff (percent decrease in adsorbed protein during 10 minute PBS wash) (lysozyme): 14 ± 4% | dR/dton lysozyme (maximum initial rate of adsorption) (lysozyme): 50 ± 20 RU/sec | % MLlys 3 min (lysozyme): 0.8 ± 0.7% | % MLlys 30 min (lysozyme): 1.0 ± 0.2% | dR/dton fibrinogen (maximum initial rate of adsorption) (fibrinogen): 50 ± 10 RU/sec | % MLfib 3 min (fibrinogen): 0.6 ± 0.3% | % MLfib 30 min (fibrinogen): 1.3 ± 0.1%
SMILES: CNCC(=O)N(C)CC(=O)N(C)CC(=O)N(C)CC(=O)N(C)CC(=O)N(C)C [H(CH3)N(Sar)5N(CH3)2]

% ML 3 min (lysozyme; footnote b (30 minutes)): 17 ±0.3% | % ML 3 min (lysozyme): 4.5 ±0.1% | dR/dt on (lysozyme): 330 ±110 RU/sec | % Lys off (lysozyme): 240 ±2% | % ML 30 min (fibrinogen): 37 ±2% | dR/dt on (fibrinogen): 83 ±40 RU/sec | % ML 3 min (fibrinogen): 13 ±0.2% | % Fib off (fibrinogen): 29 ±0.4%
SMILES: CN(CCN(C)P(=O)(N(C)C)N(C)C)C(=O)CCCCCCCCCCS [Entry 1a]

% ML 3 min (lysozyme; footnote b (30 minutes)): 6.1 ±4% | % ML 3 min (lysozyme): 0.4 ±0.4% | dR/dt on (lysozyme): 100 ±70 RU/sec | % Lysoff (percent decrease in adsorbed protein during 10 minute PBS wash) (lysozyme): 17 ± 40% | dR/dton lysozyme (maximum initial rate of adsorption) (lysozyme): 100 ± 70 RU/sec | % MLlys 3 min (lysozyme): 0.4 ± 0.4% | % MLlys 30 min (lysozyme): 6.1 ± 4% | % Lys off (lysozyme): 17 ±40% | % ML 30 min (fibrinogen): 2.9 ±1.4% | dR/dt on (fibrinogen): 50 ±50 RU/sec | % ML 3 min (fibrinogen): 0.8 ±0.5% | % Fiboff (percent decrease in adsorbed protein during 10 minute PBS wash) (fibrinogen): 18 ± 2% | dR/dton fibrinogen (maximum initial rate of adsorption) (fibrinogen): 50 ± 50 RU/sec | % MLfib 3 min (fibrinogen): 0.8 ± 0.5% | % MLfib 30 min (fibrinogen): 2.9 ± 1.4% | % Fib off (fibrinogen): 18 ±2%
SMILES: CNC[C@H](OC)[C@H](OC)[C@H](OC)[C@H](COC)OC

% ML 3 min (lysozyme; footnote b (30 minutes)): 1.1% | % ML 3 min (lysozyme): 0.6% | dR/dt on (lysozyme): 70 RU/sec | dR/dton lysozyme (maximum initial rate of adsorption) (lysozyme): 70 ± 30 RU/sec | % MLlys 3 min (lysozyme): 0.6 ± 0.1% | % MLlys 30 min (lysozyme): 1.1 ± 0.3% | % ML 30 min (fibrinogen): 2.0% | dR/dt on (fibrinogen): 60 RU/sec | % ML 3 min (fibrinogen): 0.7% | dR/dton fibrinogen (maximum initial rate of adsorption) (fibrinogen): 60 ± 10 RU/sec | % MLfib 3 min (fibrinogen): 0.7 ± 0.1% | % MLfib 30 min (fibrinogen): 2.0 ± 0.1%
SMILES: CNCC(=O)N(C)CC(=O)N(C)CC(=O)N(C)C [H(CH3)N(Sar)3N(CH3)2] (H-[Sar]-[Sar]-[Sar]-NMe2)
